Data taken from publication PMC10693969 (Parasites, Hosts and Diseases, 2023).
Values joined by “and” are separate entries in the source; they are usually repeats but may differ in a detail not shown here. Equal entries are not always repeated. Where two headings read alike, the source gives them in different places.

What was measured:
[1] = Cytotoxicity against C6 glial cells; format: cell-based, rat; details: rat, C6 glial cells
[2] = tested on: A. castellanii (ATCC-30868) trophozoites; assay: In vitro anti-Acanthamoeba activity, A. castellanii trophozoite viability; format: cell-based; details: for SI, sensitivity index (CC50 C6 glial cells / IC50 A. castellanii): ratio CC50 C6 glial cells / IC50 A. castellanii; for IC50: mean±SD of 3 independent experiments; for antiamoebic activity against A. castellanii (in words): in vitro
[3] = tested on: Naegleria fowleri trophozoites (Carter NF69 strain, ATCC 30215); assay: In vitro anti-N. fowleri activity, trophozoite viability; format: cell-based; details: for IC50: mean±SD of 3 independent experiments; for SI, sensitivity index (CC50 C6 glial cells / IC50 N. fowleri): ratio CC50 C6 glial cells / IC50 N. fowleri
[4] = tested on: A. polyphaga (ATCC-30461) trophozoites; assay: In vitro anti-Acanthamoeba activity, A. polyphaga trophozoite viability; format: cell-based; details: for IC50: mean±SD of 3 independent experiments; for SI, sensitivity index (CC50 C6 glial cells / IC50 A. polyphaga): ratio CC50 C6 glial cells / IC50 A. polyphaga; for antiamoebic activity against A. polyphaga (in words): in vitro
[5] = tested on: C6 rat glial cells (ATCC CCL-107); assay: Cytotoxicity against C6 glial cells; format: cell-based; details: read-out: C6 glial cells (CC50 ±SD); C6 rat glial cells, 0–400 μM; mean±SD of 3 independent assays
[6] = read-out: A. castellanii (IC50 ±SD), trophozoites, 0–400 μM, 25°C, 48 h
[7] = Naegleria fowleri, ATCC30215, 48 h, read-out: N. fowleri (IC50 ±SD, μM), trophozoites, 0–400 μM, 37°C, 48 h
[8] = read-out: N. fowleri (IC50 ±SD), trophozoites, 0–400 μM, 37°C, 48 h
[9] = Acanthamoeba polyphaga, ATCC30461, 48 h, read-out: A. polyphaga (IC50 ±SD, μM), trophozoites, 0–400 μM, 25°C, 48 h
[10] = read-out: A. polyphaga (IC50 ±SD), trophozoites, 0–400 μM, 25°C, 48 h
[11] = Acanthamoeba castellanii, ATCC30868, 48 h, read-out: A. castellanii (IC50 ±SD, μM), trophozoites, 0–400 μM, 25°C, 48 h

Compound | CC50 [1] [µM] | SI, sensitivity index (CC50 C6 glial cells / IC50 A. castellanii) [2] | IC50 [2, 6] [µM] | IC50 [3, 7] [µM] | SI, sensitivity index (CC50 C6 glial cells / IC50 N. fowleri) [3] | IC50 [3, 8] [µM] | IC50 [4, 9] [µM] | SI, sensitivity index (CC50 C6 glial cells / IC50 A. polyphaga) [4] | IC50 [4, 10] [µM] | IC50 [2, 11] [µM] | antiamoebic activity against A. castellanii (in words) ([2]; trophozoites) | antiamoebic activity against A. polyphaga (in words) ([4]; trophozoites) | CC50 [5] [µM] | also measured
O=c1c(O)c(-c2ccc(O)cc2)oc2cc(O)cc(O)c12 [Kaempferol, kaempferol] | 333.8 ± 0.99 | 15.43 | 21.6 ± 1.28 | < 30 | 12.00 | 27.8 ± 0.33 | < 50 | 11.67 | 28.6 ± 1.17 |  |  |  |  | SI, sensitivity index (CC50 C6 glial cells / IC50 A. castellanii) ([2]; listed as kaempferol): > 8; IC50 ([2]; read-out: A. castellanii (IC50 ±SD), trophozoites, 0–400 μM, 25°C, 48 h, listed as kaempferol): < 40 µM; SI, sensitivity index (CC50 C6 glial cells / IC50 N. fowleri) ([3]; listed as kaempferol): > 7 and > 8; IC50 ([3]; read-out: N. fowleri (IC50 ±SD), trophozoites, 0–400 μM, 37°C, 48 h, listed as kaempferol): < 40 µM; SI, sensitivity index (CC50 C6 glial cells / IC50 A. polyphaga) ([4]; listed as kaempferol): > 8; IC50 ([4]; read-out: A. polyphaga (IC50 ±SD), trophozoites, 0–400 μM, 25°C, 48 h, listed as kaempferol): < 40 µM
O=c1cc(-c2ccc(O)c(O)c2)oc2cc(O)cc(O)c12 [Luteolin, luteolin] | > 350 |  |  | < 30 |  | 27.4 ± 0.61 | 40.2 ± 0.47 |  |  | > 350 | not effective | effective |  | 
CCCCCCCCCCCCCCCCOP(=O)([O-])OCC[N+](C)(C)C [Miltefosine, miltefosine, reference compound] | > 245 | >1.15 |  | 153.3 ± 1.3 | >1.60 |  | 227.5 ± 0.36 | >1.08 |  | 213.2 ± 1.22 |  |  |  | 
O=c1c(O)c(-c2ccc(O)c(O)c2)oc2cc(O)cc(O)c12 [Quercetin, quercetin] | > 330 |  |  | > 330 |  |  | 320.8 ± 0.33 | >1.03 |  | > 330 | did not exhibit potential or selective antiamoebic activity | did not exhibit potential or selective antiamoebic activity |  | 
O=C(/C=C/c1ccc(O)c(O)c1)O[C@H](Cc1ccc(O)c(O)c1)C(=O)O [Rosmarinic acid, rosmarinic acid] | > 278 | >8.77 | 31.66 ± 0.31 | 77.7 ± 0.97 | >3.57 |  |  | >12.38 | 22.4 ± 0.78 | < 50 |  |  |  | SI, sensitivity index (CC50 C6 glial cells / IC50 A. castellanii) ([2]; listed as rosmarinic acid): > 8; antiamoebic activity against N. fowleri (in words) ([3]; trophozoites, in vitro): did not show significative anti-N. fowleri activities; SI, sensitivity index (CC50 C6 glial cells / IC50 A. polyphaga) ([4]; listed as rosmarinic acid): > 8; IC50 ([4]; read-out: A. polyphaga (IC50 ±SD), trophozoites, 0–400 μM, 25°C, 48 h, listed as rosmarinic acid): < 50 µM
(+)-pinostrobin |  |  | > 370 |  |  | > 370 |  |  | > 370 |  | did not exhibit potential or selective antiamoebic activity | did not exhibit potential or selective antiamoebic activity | > 370 | 
(±)-catechin hydrate |  |  | > 345 |  |  | > 345 |  |  | > 345 |  | did not exhibit potential or selective antiamoebic activity | did not exhibit potential or selective antiamoebic activity | > 345 | 
silybin (A+B) mixture |  | 4.08 | 24.5 ± 0.56 |  | 4.13 | 24.2 ± 0.27 |  | 6.31 | 15.82 ± 0.06 |  |  |  | 99.89 ± 0.78 | IC50 ([2]; read-out: A. castellanii (IC50 ±SD), trophozoites, 0–400 μM, 25°C, 48 h, listed as silybin (A+B)): < 50 µM; IC50 ([4]; read-out: A. polyphaga (IC50 ±SD), trophozoites, 0–400 μM, 25°C, 48 h, listed as silybin (A+B)): < 50 µM
